What all share (type): cell-based
The subject of test [1] is Influenza A USSR/90(H1 N1). Nature of the test: Anti-Influenza Activity (Hemadsorption Assay), Influenza A USSR/90. As for the experimental part: Upon infection of a monolayer of tissue culture cells by influenza virus, the cell surface is altered so that guinea pig erythrocytes can be adsorbed to the cell surface. The number of foci of adsorbed cells (hemadsorption foci forming units HAFFU) is a quantitative measure of infectivity. The method is as follows.
The monolayers were subcultured in the following manner: The medium was poured off, and the monolayer washed two times with approximately 50 ml per wash of calcium and magnesium free phosphate buffered saline (PBS), (GIBCO #419) at a pH of 7.2. One ml of trypsin-EDTA solution (GIBCO #530L) containing 0.5 g trypsin (1:250) and 2.0 g EDTA/liter of Modified Puck's Saline A was added at 37° C. to each flask and dispersed over the monolayer with gentle shaking. The flasks were then placed in an incubator at 37° C. for approximately 3-5 minutes depending on the time required to dislodge the cells. Occasional shaking was required. Ten ml of planting medium was added to each flask and the cells dispersed by aspirating and expelling the suspension from the pipette. The contents of a series of flasks were pooled and the cells in the suspension were diluted with planting medium to 7-8.5×10^4 cells/ml. The planting medium consisted of the following composition: Minimum Essential Medium Eagles (MEM) with Earle's salts and HEPES buffer (GIBCO #236) supplemented by adding the following substances as specified to 87 ml of MEM:
The following day the medium was removed and replaced with fresh planting medium. The monolayers were used for experimentation when they reached a condition in which they were almost confluent (approximately 3-4 days).
When the Linbro tray HeLa cell cultures were ready for experimentation (see cells), the medium was decanted and 1 ml of maintenance medium (MEM with FCS reduced to 3%) containing the compound being tested at a given concentration was added to 4 replicate cultures within a tray.
A series of different drug concentrations ranging from 2.3 to 150 μg/ml were used. Maintenance medium alone was used for control cultures. After the administration of drug and control medium, 0.1 ml of the diluted viral suspension was added to experimental groups and infected control cultures. Saline alone was added to non-infected control cultures. The Linbro trays were then incubated at 37° C. for 18 hours, after which media in all groups was aspirated. Each culture was washed once with PBS. The saline was aspirated and 0.5 ml of a 0.4% v/v guinea pig red blood cell suspension in PBS was added to each culture well. The cultures remained at room temperature for 30 minutes after which the medium was decanted and culture washed […] with PBS to remove all but the specifically bound red cells. After the third wash, maintenance medium was added to all cultures.
A Howard Micrometer eyepiece (C8385) was inserted within the ocular of a Nikon inverted phase contrast microscope. Each culture was scanned with a 4× low paper objective and direct counts of hemadsorbed red cells were counted using the eyepiece grid as a field marker. Partial or complete fields were counted per experimental group depending on the resulting number and density of hemadsorbed cells in the infected control cultures. Magnification of 60× or 150× were chosen to obtain the best conditions for enumerating the hemadsorbed cells. Field factors were calculated for counting hemadsorption at 60× and 150×. At 60× magnification, total field count was calculated using a multiplication factor of 55.5. At 150× magnification the multiplication factor was 273. The multiplication factors of 55.5 and 273 represent the total number of fields at 60× and 150× magnifications, respectively. The number of fields counted ranged from 3 to 5 per well with 3 to 4 wells per treatment group employed (see raw data tables in results section for number of fields examined). Means and standard errors were calculated and the data was evaluated using student's t-test analysis.

Test [2] has as its system Mouse spleen cells. Nature of the test: Mitogen Induced (Con A) Mouse Lymphocyte Proliferation. An excerpt:
(§1) The following three assay procedures are used to evaluate the ability of the test substances to modulate the activity of several classes of cells in the immune system. In these systems it is possible to identify both immunopotentiating activity (evidence by an enhancement of the parameter examined) as well as immunosuppressant activity (evidenced by an inhibition of the parameter examined).
1. Mitogen--Induced Mouse Spleen Cell Assay--Mouse spleen cells contain a population of both B and T lymphocytes which can be stimulated by a number of foreign substances (e.g., plant mitogens such as Con A) to proliferate. This enhanced proliferation is an indication of enhanced cell mediated immunity. The method below describes the system used to evaluate test substances as immunopotentiators.
Concanavalin A (Calbiochem, La Jolla, Calif.), Lot #210073, lyophilized in NaCl, was prepared first as a 1% solution and diluted as a 2× concentration for each dilution (0.5, 1.0, 2.5 μg/ml).
Six to eight week old male Balb/c and C3 H inbred mice were obtained from the following sources: Flow Research Animals, Inc., Dublin, Va.; Charles River Breeding Laboratories, Wilmington, Mass.; Laboratory Supply Company, Indianapolis, Ind.; and Lionel Strong Foundation, San Diego, Calif.
Three to five mice were sacrificed by cervical dislocation and the spleens aseptically removed. Pooled spleens were minced and teased with sterile forceps; then strained through a double layer of nylon mesh. The cell suspension was washed once with 15 ml of RPMI 1640 supplemented with 5% fetal calf serum and antibiotics. Cells were cultured at a concentration of 10^6 cells/0.1 ml/well in micro-plates. Cultures were incubated in the presence or absence of mitogen in a humidified atmosphere containing 5% CO2 for 48 hours. The test compound was added to cultures at various concentrations concommitant with mitogen.
Proliferation was assayed by the degree of incorporation of 1.0 μCi of [^3 H] thymidine over an 18 hour incubation period. Cultures were harvested by a MASH unit (Otto Hiller Co., Madison, Wisconsin) and thymidine incorporation was assayed by liquid scintillation spectrometry. Cultures were performed in triplicate and data are expressed as means plus or minus the strandard error of the experimental means. Drug stimulation indices over control values were also calculated and portrayed graphically.

Test [3] has as its system human peripheral blood lymphocytes. The test can be described thus: Mitogen Induced (PHA) Human Lymphocyte Proliferation.
Test [4] has as its system influenza virus. Nature of the test: Anti-influenza activity (summary).
Test [5] deals with guinea pig peritoneal macrophages. The test can be described thus: Lymphokine Induced (MMF) Guinea Pig Macrophage Proliferation.
Text: as §1
3. The macrophage represents a subpopulation of white blood cells which is an important component of the immune system in control of both cellular and humoral immunity. The assay system described below evaluates the substances studied as potentiators of macrophage function.
Phytohemagglutinin(PHA) (HA-17) was purchased from Burroughs Wellcome. A preparation containing Macrophage Mitogen Factor (MMF) and Macrophage Activating Factor (MAF) was prepared from antigen-stimulated immune lymph node lymphocytes (guinea pig) as previously described by Hadden et al, Nature 257, 483-485 (1975). […] The active fraction was employed in both the proliferation and activation assays.
Ficoll-hypaque purified human peripheral blood lymphocytes were prepared and PHA-induced lymphocyte proliferation was assayed by the incorporation of tritiated thymidine as described in Hadden et al, Cell. Immunol. 20, 98-103 (1975). Each compound was analyzed in the presence of suboptimal, optimal and supraoptimal concentrations of PHA (0.001, 0.01, 0.1 units/ml respectively). Paraffin oil-induced guinea pig peritoneal macrophages were prepared and incubated as monolayer culture (>98% pure macrophages). Lymphokine (MMF)-induced proliferation was assayed by the incorporation of triturated thymidine at 3 and 5 days of culture as described, Hadden et al, Nature 257, 483-485 (1975). Lymphokine (MAF)-induced macrophage activation to kill Listeria monocytogenes following 5 days of culture in the presence or absence of MAF was performed during a 6 hour period as described in Hadden and England, Immunopharmacology, pages 87-100 (Plenum Press, 1977). Phagocytosis was quantitated during a 20-minute exposure to Listeria monocytogenes by counting the number of macrophages containing bacteria and the number of bacteria per phagocytic cell on gram stained monolayers in Labtek chambers. Intracellular killing of bacteria was evaluated by counting the number of cells containing bacteria and the number of bacteria/cell 6 hours after the initial 20 minute exposure. Parallel experiments in which macrophages were lysed and intracellular bacteria were cultured confirm the validity of bacterial activity determined by this manner in this sytem. The drugs were employed in each of the three systems over serial log concentration range in triplicate in the presence and absence of mitogen or lymphokine. Each type of experiment was performed at least three times. Previous experiments indicate a parallelism of response to pharmacologic modulation in the proliferation and activation assays.

This note sets out measurements from US4221909A, “P-Acetamidobenzoic acid salts of 9-(hydroxyalkyl) purines” (Sloan-Kettering Institute for Cancer Research, priority 1978, dated 1980).

In the case of `CC(CO)n1cnc2c(Cl)ncnc21` (stereo not shown) [NPT 15423, 9-(1-HYDROXY-2-PROPANE)-6-CHLOROPURINE], the inhibition in test [1] (Influenza A virus, Conc. 10-100 μg/ml, read-out: % Inhibition of Hemadsorption Foci) was 13%.
For `O=c1[nH]cnc2c1ncn2CCO` [NPT 15425, 9-HYDROXYETHYL HYPOXANTHINE], the “Maximum Percent Change, Mitogen Induced (Con A) Mouse Lymph. Prolif.” value came to 0% in test [2] (1.0-10) and 11% in test [2] (.01-1.0). In addition, the results for the “Maximum Percent Change, Mitogen Induced (PHA) Human Lymph. Prolif.” value in test [3] (1.0-10), in test [3] (10-100) and in test [3] (.01-1.0) were 0%, 0% and 100%, respectively.
For the compound `CC(O)Cn1cnc2c(N)ncnc21` (stereo not shown) [NPT 15431, 9-(2-HYDROXY-1-PROPYL)ADENINE], the “% Inhibition of Hemadsorption Foci” value in test [1] (Conc. 10-100 μg/ml, listed as 15431) was 22%; in test [1] (Conc. >100 μg/ml, listed as 15431), 0%. Moreover, the “Maximum Percent Change, Mitogen Induced (Con A) Mouse Lymph. Prolif.” value in test [2] (1.0-10) was -27%; in test [2] (10-100) it was -47%; in test [2] (.01-1.0) it was -15%. Also, the “Maximum Percent Change, Mitogen Induced (PHA) Human Lymph. Prolif.” value in test [3] (1.0-10), in test [3] (10-100) and in test [3] (.01-1.0) was 0% in each case.
`CC(O)Cn1cnc2c(N)ncnc21` (stereo not shown) [NPT 15432]: the “% Inhibition of Hemadsorption Foci” value in test [1] (Conc. 10-100 μg/ml, listed as 15432) is on record as 48%; in test [1] (Conc. >100 μg/ml, listed as 15432), 62%. Further, in test [4], the “DIP.PAcBA potentiation of Anti-Influenza activity” value was “Yes”.
As for `CC(CO)n1cnc2c(N)ncnc21` (stereo not shown) [NPT 15433, 9-(1-HYDROXY-2-PROPYL)ADENINE], the “% Inhibition of Hemadsorption Foci” value in test [1] (Conc. >100 μg/ml, listed as 15433) was found to be 0%. Further, the “Maximum Percent Change, Mitogen Induced (Con A) Mouse Lymph. Prolif.” value was -23% in test [2] (1.0-10), -65% in test [2] (10-100) and “+15%” in test [2] (.01-1.0). In addition, the “Maximum Percent Change, Mitogen Induced (PHA) Human Lymph. Prolif.” value in test [3] (1.0-10) is reported as 0%; in test [3] (10-100), -50%; in test [3] (.01-1.0), 53%.
On to `CC(CO)n1cnc2c(N)ncnc21` (stereo not shown) [NPT 15434], for which the “% Inhibition of Hemadsorption Foci” value in test [1] (Conc. 10-100 μg/ml) was 41%; in test [1] (Conc. >100 μg/ml, listed as 15434), 62%. In test [4], the “DIP.PAcBA potentiation of Anti-Influenza activity” value is “Yes”.
Turning to `CC(CO)n1cnc2c(=O)[nH]cnc21` (stereo not shown) [NPT 15443, 9-(1-HYDROXY-2-PROPYL)HYPOXANTHINE], the “% Inhibition of Hemadsorption Foci” value stood at 0% in test [1] (Conc. 10-100 μg/ml, listed as 15443) and 0% in test [1] (Conc. >100 μg/ml, listed as 15443). Further, the figures for the “Maximum Percent Change, Mitogen Induced (Con A) Mouse Lymph. Prolif.” value in test [2] (1.0-10), in test [2] (10-100) and in test [2] (.01-1.0) were “+27%”, “+27%” and “+17%”, respectively. Further, the “Maximum Percent Change, Mitogen Induced (PHA) Human Lymph. Prolif.” value in test [3] (1.0-10) was “+13%”; in test [3] (10-100) it was 0%; in test [3] (.01-1.0), 0%. Further, the “Maximum Percent Change, Lymphokine Induced (MMF) Guinea Pig Mac. Prolif.” value in test [5] (1.0-10) is listed as 0%; in test [5] (.01-1.0) it was “+20%”.
As to `CC(O)Cn1cnc2c(=O)[nH]cnc21` (stereo not shown) [NPT 15446, 9-(2-HYDROXY-1-PROPYL)HYDROXANTHINE], the “% Inhibition of Hemadsorption Foci” value in test [1] (Conc. 10-100 μg/ml, listed as 15446) came to 0%; in test [1] (Conc. <10 μg/ml, listed as 15446), 2%; in test [1] (Conc. >100 μg/ml, listed as 15446), 0%. The “Maximum Percent Change, Mitogen Induced (Con A) Mouse Lymph. Prolif.” value in test [2] (1.0-10) was found to be 12%; in test [2] (10-100), 0%; in test [2] (.01-1.0), 6%. Moreover, the “Maximum Percent Change, Mitogen Induced (PHA) Human Lymph. Prolif.” value in test [3] (1.0-10), in test [3] (10-100) and in test [3] (.01-1.0) was 0% in each case. The “Maximum Percent Change, Lymphokine Induced (MMF) Guinea Pig Mac. Prolif.” value in test [5] (1.0-10), in test [5] (10-100) and in test [5] (.01-1.0) was 0% in each case.
For the compound `CC(=O)Nc1ccc(C(=O)O)cc1.CC(O)CN(C)C` [compound 15110, dimethylamino-2-propanol-p-acetamido benzoate, reference compound], the “% Inhibition of Hemadsorption Foci” value in test [1] (Conc. 10-100 μg/ml) is given as 0%; in test [1] (Conc. <10 μg/ml), 0%; in test [1] (Conc. >100 μg/ml), 20%.

The inhibition is the percentage by which the read-out fell short of the control.
